1 compound from PMC5218480 (PLoS ONE, 2017) can be followed below.

The assay has as its system MV-4-11 cells. The assay is described as follows: Gene expression microarray analysis (Affymetrix PrimeView) and GSEA. It counts as cell-based, human. The arrangement: RFU PODN (11730768_x_at) / Fold change /veh PODN (11730768_x_at) / RFU LINC00158 (11744669_a_at) / Fold change /veh LINC00158 (11744669_a_at) / RFU DUSP10 (11751237_a_at) / Fold change /veh DUSP10 (11751237_a_at) / RFU ID3 (11757404_x_at) / Fold change /veh ID3 (11757404_x_at) / RFU PLEKHG5 (11737974_s_at) / Fold change /veh PLEKHG5 (11737974_s_at) / RFU LRRC4B (11730491_at) / Fold change /veh LRRC4B (11730491_at) / RFU GIMAP4 (11747438_a_at) / Fold change /veh GIMAP4 (11747438_a_at) / RFU KRT8 (11758183_x_at) / Fold change /veh KRT8 (11758183_x_at) / RFU CNN1 (11734310_a_at) / Fold change /veh CNN1 (11734310_a_at) / RFU VPS37D (11726825_at) / Fold change /veh VPS37D (11726825_at) / RFU C10orf10 (11716522_x_at) / Fold change /veh C10orf10 (11716522_x_at) / RFU KIR2DL2 /// KIR2DL4 /// KIR2DL5A /// KIR2DL5B /// KIR2DS1 /// KIR2DS2 /// KIR2DS3 /// KIR2DS4 /// KIR3DL3 /// KIR3DL3 /// KIR3DS1 (11738374_at) / Fold change /veh KIR2DL2 /// KIR2DL4 /// KIR2DL5A /// KIR2DL5B /// KIR2DS1 /// KIR2DS2 /// KIR2DS3 /// KIR2DS4 /// KIR3DL3 /// KIR3DL3 /// KIR3DS1 (11738374_at) / RFU C1QL1 (11718748_at) / Fold change /veh C1QL1 (11718748_at) / RFU TMPRSS4 (11747572_a_at) / Fold change /veh TMPRSS4 (11747572_a_at) / RFU HAMP (11756126_x_at) / Fold change /veh HAMP (11756126_x_at) / RFU RNFT2 (11725882_a_at) / Fold change /veh RNFT2 (11725882_a_at) / RFU NR4A2 (11747474_a_at) / Fold change /veh NR4A2 (11747474_a_at) / RFU ABCC12 (11746883_a_at) / Fold change /veh ABCC12 (11746883_a_at) / RFU TMEM136 (11760407_x_at) / Fold change /veh TMEM136 (11760407_x_at) / RFU CLDN22 /// WWC2 (11732394_at) / Fold change /veh CLDN22 /// WWC2 (11732394_at) / RFU HLA-DPB1 (11760878_x_at) / Fold change /veh HLA-DPB1 (11760878_x_at) / RFU SPINT1 (11716480_a_at) / Fold change /veh SPINT1 (11716480_a_at) / RFU GAP43 (11754022_s_at) / Fold change /veh GAP43 (11754022_s_at) / RFU A4GNT (11735810_at) / Fold change /veh A4GNT (11735810_at) / RFU PRB3 (11715151_x_at) / Fold change /veh PRB3 (11715151_x_at) / RFU TUBB4B (11761932_at) / Fold change /veh TUBB4B (11761932_at) / RFU CAPN14 (11732068_a_at) / Fold change /veh CAPN14 (11732068_a_at) / RFU TMCC2 (11721928_a_at) / Fold change /veh TMCC2 (11721928_a_at) / RFU IRGQ (11745062_a_at) / Fold change /veh IRGQ (11745062_a_at) / RFU FAM174B (11720279_a_at) / Fold change /veh FAM174B (11720279_a_at) / RFU TMPRSS4 (11748680_a_at) / Fold change /veh TMPRSS4 (11748680_a_at) / RFU FAM212B (11763350_a_at) / Fold change /veh FAM212B (11763350_a_at) / RFU PLEKHG5 (11743358_a_at) / Fold change /veh PLEKHG5 (11743358_a_at) / RFU ZSCAN30 (11745921_a_at) / Fold change /veh ZSCAN30 (11745921_a_at) / RFU CMKLR1 (11741424_a_at) / Fold change /veh CMKLR1 (11741424_a_at) / RFU LOC101060620 /// MAPK8IP1 (11723275_at) / Fold change /veh LOC101060620 /// MAPK8IP1 (11723275_at) / RFU SPTSSB (11747773_x_at) / Fold change /veh SPTSSB (11747773_x_at) / RFU PRSS12 (11739890_at) / Fold change /veh PRSS12 (11739890_at) / RFU BIN1 (11741810_x_at) / Fold change /veh BIN1 (11741810_x_at) / RFU WNT11 (11732464_a_at) / Fold change /veh WNT11 (11732464_a_at) / RFU C10orf10 (11716521_a_at) / Fold change /veh C10orf10 (11716521_a_at) / RFU C5orf56 (11738089_at) / Fold change /veh C5orf56 (11738089_at) / RFU CYB561 (11721691_x_at) / Fold change /veh CYB561 (11721691_x_at) / RFU ANKRD19P (11752326_a_at) / Fold change /veh ANKRD19P (11752326_a_at) / RFU OR2T12 /// OR2T33 /// OR2T8 (11738714_s_at) / Fold change /veh OR2T12 /// OR2T33 /// OR2T8 (11738714_s_at) / RFU VCAN (11748164_a_at) / Fold change /veh VCAN (11748164_a_at) / RFU JSRP1 (11732532_at) / Fold change /veh JSRP1 (11732532_at) / RFU KRTAP10-11 (11738290_x_at) / Fold change /veh KRTAP10-11 (11738290_x_at) / RFU MYO3A (11730013_a_at) / Fold change /veh MYO3A (11730013_a_at) / RFU EBF3 (11725865_a_at) / Fold change /veh EBF3 (11725865_a_at) / RFU CAMK2N1 (11719241_x_at) / Fold change /veh CAMK2N1 (11719241_x_at) / RFU C5orf56 (11738088_a_at) / Fold change /veh C5orf56 (11738088_a_at) / RFU OLFML3 (11715873_a_at) / Fold change /veh OLFML3 (11715873_a_at) / RFU LOC100653217 /// NTM (11731650_a_at) / Fold change /veh LOC100653217 /// NTM (11731650_a_at) / RFU MAPK11 (11762145_a_at) / Fold change /veh MAPK11 (11762145_a_at) / RFU FIZ1 (11724087_x_at) / Fold change /veh FIZ1 (11724087_x_at) / RFU OASL (11726364_x_at) / Fold change /veh OASL (11726364_x_at) / RFU SOX15 (11748057_x_at) / Fold change /veh SOX15 (11748057_x_at) / RFU CD79A (11719716_a_at) / Fold change /veh CD79A (11719716_a_at) / RFU HIST1H1D (11736915_at) / Fold change /veh HIST1H1D (11736915_at) / RFU CASKIN2 (11723855_a_at) / Fold change /veh CASKIN2 (11723855_a_at) / RFU LOC730098 (11760151_x_at) / Fold change /veh LOC730098 (11760151_x_at) / RFU OR4N2 (11742367_at) / Fold change /veh OR4N2 (11742367_at) / RFU PRRT2 (11749266_a_at) / Fold change /veh PRRT2 (11749266_a_at) / RFU SNX32 (11753110_a_at) / Fold change /veh SNX32 (11753110_a_at) / RFU CDHR5 (11726645_a_at) / Fold change /veh CDHR5 (11726645_a_at) / RFU RCAN1 (11760418_a_at) / Fold change /veh RCAN1 (11760418_a_at) / RFU FAM167A (11723789_a_at) / Fold change /veh FAM167A (11723789_a_at) / RFU FAM26E (11764081_at) / Fold change /veh FAM26E (11764081_at) / RFU ISYNA1 (11749810_s_at) / Fold change /veh ISYNA1 (11749810_s_at) / RFU ACY1 (11761880_at) / Fold change /veh ACY1 (11761880_at) / RFU 11764098_at / Fold change /veh 11764098_at / RFU SAMD14 (11745864_x_at) / Fold change /veh SAMD14 (11745864_x_at) / RFU NPB (11741838_a_at) / Fold change /veh NPB (11741838_a_at) / RFU TMPRSS6 (11731388_a_at) / Fold change /veh TMPRSS6 (11731388_a_at) / RFU KRTAP10-2 (11738614_at) / Fold change /veh KRTAP10-2 (11738614_at) / RFU ARHGAP8 /// PRR5-ARHGAP8 (11727945_x_at) / Fold change /veh ARHGAP8 /// PRR5-ARHGAP8 (11727945_x_at) / RFU KRTAP5-7 /// NADSYN1 (11734609_at) / Fold change /veh KRTAP5-7 /// NADSYN1 (11734609_at) / RFU RASL12 (11751679_a_at) / Fold change /veh RASL12 (11751679_a_at) / RFU CDKN2B (11736163_a_at) / Fold change /veh CDKN2B (11736163_a_at) / RFU PRF1 (11729649_at) / Fold change /veh PRF1 (11729649_at) / RFU, ZNF638 /// ZNF638-IT1 / Fold change vs veh, ZNF638 /// ZNF638-IT1 / RFU, PANK3 / Fold change vs veh, PANK3 / RFU, SH3YL1 / Fold change vs veh, SH3YL1 / RFU, ZEB2 / Fold change vs veh, ZEB2 / RFU, NRIP1 / Fold change vs veh, NRIP1 / RFU, PTTG1IP / Fold change vs veh, PTTG1IP / RFU, CAPN2 / Fold change vs veh, CAPN2 / RFU, MED14 / Fold change vs veh, MED14 / RFU, SNORA58 / Fold change vs veh, SNORA58 / RFU, C1orf63 / Fold change vs veh, C1orf63 / RFU, LRRFIP1 / Fold change vs veh, LRRFIP1 / RFU, NDUFAF7 / Fold change vs veh, NDUFAF7 / RFU, SLC12A2 / Fold change vs veh, SLC12A2 / RFU, IBTK / Fold change vs veh, IBTK / RFU, ESF1 / Fold change vs veh, ESF1 / Fold change vs veh, TMEM50B / RFU, TAOK1 / Fold change vs veh, TAOK1 / RFU, ACBD3 / Fold change vs veh, ACBD3 / RFU, TMA16 / Fold change vs veh, TMA16 / RFU, RWDD3 / Fold change vs veh, RWDD3 / RFU, BCAT1 / Fold change vs veh, BCAT1 / RFU, EDEM3 / Fold change vs veh, EDEM3 / RFU, TMEM33 / Fold change vs veh, TMEM33 / RFU, WDR75 / Fold change vs veh, WDR75 / RFU, AHCTF1 / Fold change vs veh, AHCTF1 / RFU, TFRC / Fold change vs veh, TFRC / RFU, ZDHHC17 / Fold change vs veh, ZDHHC17 / RFU, NOM1 / Fold change vs veh, NOM1 / RFU, ARL8B / Fold change vs veh, ARL8B / RFU, ZBTB11 / Fold change vs veh, ZBTB11 / RFU, TAMM41 / Fold change vs veh, TAMM41 / RFU, KIAA1704 /// LOC100996395 / Fold change vs veh, KIAA1704 /// LOC100996395 / RFU, ING1 / Fold change vs veh, ING1 / RFU, TRMT61B / Fold change vs veh, TRMT61B / RFU, FUBP3 / Fold change vs veh, FUBP3 / RFU, TP53 / Fold change vs veh, TP53 / RFU, TNKS2 / Fold change vs veh, TNKS2 / RFU, ZFP14 / Fold change vs veh, ZFP14 / RFU, ACTR2 / Fold change vs veh, ACTR2 / RFU, PPP3R1 / Fold change vs veh, PPP3R1 / RFU, PIK3R1 / Fold change vs veh, PIK3R1 / RFU, HNRNPA1 / Fold change vs veh, HNRNPA1 / RFU, RNF170 / Fold change vs veh, RNF170 / RFU, ZNF28 / Fold change vs veh, ZNF28 / RFU, RNGTT / Fold change vs veh, RNGTT / RFU, OGT / Fold change vs veh, OGT / RFU, BRD1 / Fold change vs veh, BRD1 / RFU, MARS / Fold change vs veh, MARS / RFU, ZNF655 / Fold change vs veh, ZNF655 / RFU, FAHD1 / Fold change vs veh, FAHD1 / RFU, BDP1 / Fold change vs veh, BDP1 / RFU, LRRCC1 / Fold change vs veh, LRRCC1 / RFU, ARID1A / Fold change vs veh, ARID1A / RFU, ZNF146 / Fold change vs veh, ZNF146 / RFU, ZNF330 / Fold change vs veh, ZNF330 / RFU, GPN3 / Fold change vs veh, GPN3 / RFU, C9orf123 / Fold change vs veh, C9orf123 / RFU, N4BP2L2 / Fold change vs veh, N4BP2L2 / RFU, ARFIP1 / Fold change vs veh, ARFIP1 / RFU, FAM179B / Fold change vs veh, FAM179B / RFU, BCL10 / Fold change vs veh, BCL10 / RFU, UHRF1BP1L / Fold change vs veh, UHRF1BP1L / RFU, BET1 / Fold change vs veh, BET1 / RFU, CNOT2 / Fold change vs veh, CNOT2 / RFU, ZNF268 / Fold change vs veh, ZNF268 / Fold change vs veh, ZNF507 / RFU, DGCR2 / Fold change vs veh, DGCR2 / RFU, WDSUB1 / Fold change vs veh, WDSUB1 / Fold change vs veh, HSP90B1 /// MIR3652 / RFU, ADSS / Fold change vs veh, ADSS / RFU, GK / Fold change vs veh, GK / RFU, ZNF148 / Fold change vs veh, ZNF148 / RFU, TAF9 / Fold change vs veh, TAF9 / RFU, SLC1A5 / Fold change vs veh, SLC1A5 / RFU, SLMO2 / Fold change vs veh, SLMO2 / RFU, ABCC4 / Fold change vs veh, ABCC4 / RFU, LOC101060439 /// RAP1B / Fold change vs veh, LOC101060439 /// RAP1B / RFU, RFX7 / Fold change vs veh, RFX7 / RFU, GTPBP10 / Fold change vs veh, GTPBP10 / RFU, CNEP1R1 / Fold change vs veh, CNEP1R1 / RFU, BIVM-ERCC5 /// ERCC5 / Fold change vs veh, BIVM-ERCC5 /// ERCC5 / RFU, ILF3 / Fold change vs veh, ILF3 / RFU 11762660_at / Fold change /veh 11762660_at / RFU VCAN (11757783_s_at) / Fold change /veh VCAN (11757783_s_at) / RFU DDX43 (11728927_at) / Fold change /veh DDX43 (11728927_at) / RFU KRT8 (11758188_x_at) / Fold change /veh KRT8 (11758188_x_at) / RFU NKD1 (11759106_at) / Fold change /veh NKD1 (11759106_at) / RFU SRD5A1 (11742802_a_at) / Fold change /veh SRD5A1 (11742802_a_at) / RFU TPSAB1 /// TPSB2 (11721975_s_at) / Fold change /veh TPSAB1 /// TPSB2 (11721975_s_at) / RFU GSTM3 (11746129_a_at) / Fold change /veh GSTM3 (11746129_a_at) / RFU IL23R (11737362_x_at) / Fold change /veh IL23R (11737362_x_at) / RFU TMEM51 (11727254_a_at) / Fold change /veh TMEM51 (11727254_a_at) / RFU PIWIL2 (11732686_x_at) / Fold change /veh PIWIL2 (11732686_x_at) / RFU ORM1 (11744905_x_at) / Fold change /veh ORM1 (11744905_x_at) / RFU CCDC152 (11743942_at) / Fold change /veh CCDC152 (11743942_at) / RFU ECM1 (11717891_a_at) / Fold change /veh ECM1 (11717891_a_at) / RFU IL23R (11748794_a_at) / Fold change /veh IL23R (11748794_a_at) / RFU TNFAIP8L3 (11732012_x_at) / Fold change /veh TNFAIP8L3 (11732012_x_at) / RFU MBOAT4 (11741988_at) / Fold change /veh MBOAT4 (11741988_at) / RFU 11764193_at / Fold change /veh 11764193_at / RFU TMEM53 (11763286_at) / Fold change /veh TMEM53 (11763286_at) / RFU MAGEB2 (11727129_at) / Fold change /veh MAGEB2 (11727129_at) / RFU TMEM200A (11744735_a_at) / Fold change /veh TMEM200A (11744735_a_at) / RFU CCDC152 (11751479_a_at) / Fold change /veh CCDC152 (11751479_a_at) / RFU FAM211A (11726209_a_at) / Fold change /veh FAM211A (11726209_a_at) / RFU RGS16 (11746705_a_at) / Fold change /veh RGS16 (11746705_a_at) / RFU VCAN (11755009_s_at) / Fold change /veh VCAN (11755009_s_at) / RFU RHOB (11743442_s_at) / Fold change /veh RHOB (11743442_s_at) / RFU RGS16 (11720943_a_at) / Fold change /veh RGS16 (11720943_a_at) / RFU RGS16 (11720944_at) / Fold change /veh RGS16 (11720944_at) / RFU, VPS4B / Fold change vs veh, VPS4B / RFU, CREB1 / Fold change vs veh, CREB1 / RFU, DNAJC13 / Fold change vs veh, DNAJC13 / RFU, GNAQ / Fold change vs veh, GNAQ / RFU, CDK5R1 / Fold change vs veh, CDK5R1 / RFU, ZRANB3 / Fold change vs veh, ZRANB3 / RFU, CUL4A / Fold change vs veh, CUL4A / RFU, CCNY / Fold change vs veh, CCNY / RFU, UFL1 / Fold change vs veh, UFL1 / RFU, COG3 / Fold change vs veh, COG3 / RFU, DIAPH2 / Fold change vs veh, DIAPH2 / RFU, SKA2 / Fold change vs veh, SKA2 / RFU, AFF3 / Fold change vs veh, AFF3 / RFU, LMF1 / Fold change vs veh, LMF1 / RFU, IPO11 / Fold change vs veh, IPO11 / RFU, DFFB / Fold change vs veh, DFFB / RFU, FOXP1 / Fold change vs veh, FOXP1 / RFU, CARD8 / Fold change vs veh, CARD8 / RFU, STRN3 / Fold change vs veh, STRN3 / RFU, ADK / Fold change vs veh, ADK / RFU, RASSF2 / Fold change vs veh, RASSF2 / RFU, WIPF1 / Fold change vs veh, WIPF1 / RFU, LARP1B / Fold change vs veh, LARP1B / RFU, RASA1 / Fold change vs veh, RASA1 / RFU, RB1 / Fold change vs veh, RB1 / RFU, PPFIA1 / Fold change vs veh, PPFIA1 / RFU, MAT2A / Fold change vs veh, MAT2A / RFU, CCT5 / Fold change vs veh, CCT5 / RFU, WDR92 / Fold change vs veh, WDR92 / RFU, CUX1 / Fold change vs veh, CUX1 / RFU, TTC7A / Fold change vs veh, TTC7A / RFU, TMEM135 / Fold change vs veh, TMEM135 / RFU, DEPTOR / Fold change vs veh, DEPTOR / RFU, CPM / Fold change vs veh, CPM / RFU, DNAJB6 / Fold change vs veh, DNAJB6 / RFU, CACNA2D3 / Fold change vs veh, CACNA2D3 / RFU, DTX4 / Fold change vs veh, DTX4 / RFU, TFCP2 / Fold change vs veh, TFCP2 / RFU, GMCL1 /// GMCL1P1 / Fold change vs veh, GMCL1 /// GMCL1P1 / RFU, AEBP2 / Fold change vs veh, AEBP2 / RFU, SNHG1 /// SNORD22 /// SNORD25 /// SNORD26 /// SNORD27 /// SNORD28 /// SNORD29 /// SNORD31 / Fold change vs veh, SNHG1 /// SNORD22 /// SNORD25 /// SNORD26 /// SNORD27 /// SNORD28 /// SNORD29 /// SNORD31 / Fold change (Aza/veh), C12orf56 (ProbeSet 11735607_a_at) / Fold change (ACY-1035/veh), C12orf56 (ProbeSet 11735607_a_at) / Fold change (Aza/veh), FGFR1OP (ProbeSet 11751329_s_at) / Fold change (ACY-1035/veh), FGFR1OP (ProbeSet 11751329_s_at) / Fold change (Aza/veh), VPS36 (ProbeSet 11739960_a_at) / Fold change (ACY-1035/veh), VPS36 (ProbeSet 11739960_a_at) / RFU SYPL1 (11715823_x_at) / Fold change /veh SYPL1 (11715823_x_at) / RFU IGFBP7 (11715501_s_at) / Fold change /veh IGFBP7 (11715501_s_at) / RFU REEP3 (11722064_at) / Fold change /veh REEP3 (11722064_at) / RFU IGLL1 (11728026_x_at) / Fold change /veh IGLL1 (11728026_x_at): dose or concentration left out as unconfirmed. The settings on record: MV-4-11 cells, 48 hours.

On to `Nc1ncn([C@@H]2O[C@H](CO)[C@@H](O)[C@H]2O)c(=O)n1` [azacitidine], for which the “RFU OR4N2 (11742367_at)” value came to 68.76 RFU.
